These results are taken from patent US20120165223A1 (priority 2006, published 2012).

For one experiment, the system named is Enterococcus spp. The experiment can be described thus: Composition of flora in feces of HFA mice: Enterococcus spp. It counts as in vivo. Particulars: 4th and 27th day from the medication, 500 μg/Ml in drinking water.
The test system of another experiment is nitrate reductase. Briefly: Fecal enzyme activity of flora of HFA mice: nitrate reductase. It counts as in vivo, human intestinal normal bacterial flora. The method, then: (§1) For the one week, the feces were picked free from germs with the interval of two to three days. The feces collected at the day of colistin sulfate administration, 2nd, 4th, 7th, 10th, 13th, 17th and 20th days and at 3rd and 5th day after the stop of medication are put in an encapsulated tube and moved to an anaerobic chamber immediately and the activity of glucuomidase, glucosidase, nitrate reductase and azoreductase produced by the human intestinal normal bacterial flora is measured. As a result glucuronidase is decreased throughout the period of administration and the withdrawal period in comparison with control groups and is not recovered even at the 5th day since the medication is stopped. Glucosidase is increased during the medication period in comparison with the control groups. Nitrate reductase is increased in comparison with the control group at the start day of administration and the 2nd day of the medication but is recovered. Azoreductase is increased in comparison with the control group until the 7th day of medication and then decreased.

The test system of the next experiment is azoreductase. The experiment can be described thus: Fecal enzyme activity of flora of HFA mice: azoreductase. It counts as in vivo, human intestinal normal bacterial flora. The method, then: as §1
Another experiment has as its system anaerobic bacteria. Briefly: Composition of flora in feces of HFA mice: total number of anaerobic bacteria. Particulars: 17th day, 500 μg/Ml in drinking water. It counts as in vivo. From the text:
For the one week, the feces were picked asceptially with the interval of two to three days. The feces collected of colistin sulfate administeration, 2nd, 4th, 7th, 10th, 13th and 17th days are put in an encapsulated tube and moved to an anaerobic chamber immediately and is put in the PRAS (Prereduced and anaerobically sterilized) TGY medium with the ten times dilution of the weight of feces. The total number of anaerobic bacteria, the number of Bacteroides fragilis and Bifidobacterium spp. of the anaerobic bacteria, the number of aerobic bacteria, and the number of Esherichia coli and Enterococcus spp. of the aerobic bacteria are measured. […] (FIG. 7)

A further experiment concerns glucuronidase. Briefly: Fecal enzyme activity of flora of HFA mice: glucuronidase. It counts as in vivo, human intestinal normal bacterial flora. The method, then: as §1
In the next experiment the test system is glucosidase. The experiment can be described thus: Fecal enzyme activity of flora of HFA mice: glucosidase. It counts as in vivo, human intestinal normal bacterial flora. The method, then: as §1
The mark [1] stands for this setting: 5th day since the medication is stopped.

colistin sulfate: the “Enterococcus spp. in feces” value with Enterococcus spp. is “decreased in similar way to the control group”. Also, the “Nitrate reductase activity, recovery” value with nitrate reductase (after the 2nd day of the medication) is listed as “recovered”. Besides, the “Nitrate reductase activity in comparison with the control group” value in the experiment on nitrate reductase (start day of administration and 2nd day of the medication) is recorded as “increased”. In addition, the “Azoreductase activity, recovery” value with azoreductase (setting [1]) is listed as “not even recovered”. In addition, the “Azoreductase activity in comparison with the control group” value is reported as “decreased” in the experiment on azoreductase (after the 7th day of medication) and “increased” in the experiment with azoreductase (until the 7th day of medication). Moreover, the “Total number of anaerobic bacteria in feces in comparison with HFA mice” value with anaerobic bacteria was “increased by about twice”. In addition, the “Glucuronidase activity, recovery” value in the experiment on glucuronidase (setting [1]) was “not recovered”. Also, in the experiment on glucuronidase (throughout the period of administration and the withdrawal period), the “Glucuronidase activity in comparison with control groups” value is recorded as “decreased”. In addition, in the experiment on glucosidase (setting [1]), the “Glucosidase activity, recovery” value was “not recovered”. The “Glucosidase activity in comparison with the control groups” value in the experiment on glucosidase (during the medication period) is recorded as “increased”.
